Laboratory results as given in patent publication US20040209914A1, “Aromatic sulfone hydroxamic acids and their use as protease inhibitors” (priority 2000, published 2004).
Like-named read-outs stand apart in the source and are kept apart here.

Columns and labels:
Assay in all cases: biochemical
Recombinant human MMP-13 = molecular target: T1, Recombinant human MMP-13 (Homo sapiens, UniProt P45452); conditions: fluorogenic MCA-peptide substrate, pH 7.5, room temperature; read-out: MMP-13 IC50
T1 construct: made in house; host or cells: baculovirus / insect cells
Description: (§1) Recombinant human MMP-1, MMP-2, MMP-9, MMP-13, and were used in this assay. These enzymes were prepared in the Assignee's es following usual laboratory procedures. Specifics for preparing and e enzymes can be found in the scientific literature describing these See, e.g., Enzyme Nomenclature (Academic Press, San Diego, Calif., d the citations therein).
The expressed proenzyme was first purified over a heparin agarose column, and then over a chelating zinc chloride column. The proenzyme was then activated by APMA for use in the assay.
(§2) The enzyme substrate was a methoxycoumarin-containing polypeptide having the following sequence:
(§3) MCA-ProLeuGlyLeuDpaAlaArgNH2
(§4) Here, “MCA” is methoxycoumarin and “Dpa” is 3-(2,4-dinitrophenyl)-L-2,3-diaminopropionyl alanine.
(§5) These solutions were then compared to a control (which contained equal amount of DMSO/buffer solution, but no hydroxamate compound) using Microfluor™ White Plates (Dynatech, Chantilly, Va.). Specifically, The MMPs were activated with APMA or trypsin. […] The control likewise was incubated at room temperature in separate plates with the MMP and 4 uM of the MMP substrate. […] Inhibition was measured as a reduction in fluorescent intensity as a function of inhibitor concentration using a Perkin Elmer (Norwalk, Conn.) L550 plate reader. The IC50's were then calculated from these measurements.

Recombinant human MMP-2 = molecular target: T2, Recombinant human MMP-2 (Homo sapiens, UniProt P08253); conditions: fluorogenic MCA-peptide substrate, pH 7.5, room temperature
T2 construct: made in house
T2 sequence (P08253 110-660): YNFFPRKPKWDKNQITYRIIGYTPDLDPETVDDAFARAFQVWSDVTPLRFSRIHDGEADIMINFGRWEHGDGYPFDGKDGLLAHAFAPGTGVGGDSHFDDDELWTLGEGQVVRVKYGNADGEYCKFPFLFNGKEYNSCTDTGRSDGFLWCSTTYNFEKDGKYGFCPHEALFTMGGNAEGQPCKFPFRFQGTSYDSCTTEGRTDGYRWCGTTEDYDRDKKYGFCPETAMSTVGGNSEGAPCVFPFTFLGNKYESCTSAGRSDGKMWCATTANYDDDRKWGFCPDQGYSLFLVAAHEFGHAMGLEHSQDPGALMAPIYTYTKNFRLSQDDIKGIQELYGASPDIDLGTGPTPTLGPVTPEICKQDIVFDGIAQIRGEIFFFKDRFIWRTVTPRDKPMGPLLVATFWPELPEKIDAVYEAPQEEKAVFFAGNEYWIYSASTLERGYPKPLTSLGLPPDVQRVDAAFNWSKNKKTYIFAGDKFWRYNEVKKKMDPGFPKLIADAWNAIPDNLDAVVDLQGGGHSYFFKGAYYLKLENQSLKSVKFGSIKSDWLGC
Description: as §1
The MMP-2 was obtained from MMP-2 expressing transfected cells provided by Dr. Gregory Goldberg of Washington University.
as §2, §3, §4, §5

Recombinant human MMP-1 = molecular target: T3, Recombinant human MMP-1 (Homo sapiens, UniProt P03956); conditions: fluorogenic MCA-peptide substrate, pH 7.5, room temperature
T3 construct: made in house; host or cells: transfected HT-1080 cells
T3 sequence (P03956 100-469): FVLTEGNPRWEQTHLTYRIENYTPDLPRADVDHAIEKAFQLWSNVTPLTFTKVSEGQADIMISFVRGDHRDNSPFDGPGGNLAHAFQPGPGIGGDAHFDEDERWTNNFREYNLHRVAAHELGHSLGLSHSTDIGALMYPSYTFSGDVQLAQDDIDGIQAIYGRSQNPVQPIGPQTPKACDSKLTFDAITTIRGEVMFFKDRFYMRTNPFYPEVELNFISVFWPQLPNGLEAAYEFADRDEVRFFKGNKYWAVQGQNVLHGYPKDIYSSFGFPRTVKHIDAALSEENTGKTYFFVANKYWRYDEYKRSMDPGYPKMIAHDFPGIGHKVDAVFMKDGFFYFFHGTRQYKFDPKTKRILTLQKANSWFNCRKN
Description: as §1
The MMP-1 was obtained from MMP-1 expressing transfected HT-1080 cells provided by Dr. Harold Welgus of Washington University in St. Louis, Mo. The MMP-1 was activated using 4-aminophenylmercuric acetate (APMA), and then purified over a hydroxamic acid column.
as §2, §3, §4, §5

SMILES	IC50 (Recombinant human MMP-13) [nM]	IC50 (Recombinant human MMP-2; read-out: MMP-2 IC50) [nM]	IC50 (Recombinant human MMP-1) [nM]	IC50 (Recombinant human MMP-2; MMP-2 IC50(nM)) [nM]
Cc1ccc(C2CCN(c3ccc(S(=O)(=O)C4(C(=O)NO)CCN(C5CC5)CC4)cc3)CC2)cc1 [Example 272]	1.3	5.9	> 10000	–
Cc1ccc(Cl)cc1N1CCN(C(=O)C2CCN(c3ccc(S(=O)(=O)C4(C(=O)NO)CCOCC4)cc3)CC2)CC1 [Example 6]	18.1	> 10000	> 10000	–
COCCN1CCC(C(=O)NO)(S(=O)(=O)c2ccc(N3CCC(C(=O)c4ccc(CC5CCCCC5)cc4)CC3)cc2)CC1 [Example 203]	0.6	816	2370	–
O=C(C1CCN(c2ccc(S(=O)(=O)C3(C(=O)NO)CCOCC3)cc2)CC1)N1CCN(C2CCCC2)CC1 [Example 14]	45	> 10000	> 10000	–
C#CCN1CCC(C(=O)NO)(S(=O)(=O)c2ccc(N3CCC(C(=O)c4cccc(C)c4)CC3)cc2)CC1 [Example 154]	2.4	176	> 10000	–
COCCN1CCC(C(=O)NO)(S(=O)(=O)c2ccc(N3CCC(c4ccc(OC)cc4)CC3)cc2)CC1 [Example 267]	0.4	1.7	> 10000	–
COCCN1CCC(C(=O)NO)(S(=O)(=O)c2ccc(N3CCC(C(=O)c4ccc(CCC5CCCC5)cc4)CC3)cc2)CC1 [Example 204]	0.2	1050	> 10000	–
CCN1CCC(C(=O)NO)(S(=O)(=O)c2ccc(N3CCC(C(=O)c4ccc(OC)cc4)CC3)cc2)CC1 [Example 194]	9.1	1230	> 10000	–
C=CCN1CCC(C(=O)NO)(S(=O)(=O)c2ccc(N3CCC(C(=O)c4ccc5ccccc5c4)CC3)cc2)CC1 [Example 160]	0.4	198	> 10000	–
CCN1CCC(C(=O)NO)(S(=O)(=O)c2ccc(N3CCC(C(=O)c4ccc(CCCC(C)C)cc4)CC3)cc2)CC1 [Example 236]	1.5	1850	> 10000	–
COCCN1CCC(C(=O)NO)(S(=O)(=O)c2ccc(N3CCC(C(=O)c4ccc(CCC(C)C)cc4)CC3)cc2)CC1 [Example 246]	1	2710	> 10000	–
C#CCN1CCC(C(=O)NO)(S(=O)(=O)c2ccc(N3CCC(C(=O)c4ccc(OC(C)C)c(C)c4)CC3)cc2)CC1 [Example 162]	2.7	495	> 10000	–
O=C(C1CCN(c2ccc(S(=O)(=O)C3(C(=O)NO)CCOCC3)cc2)CC1)N1CCN(CCO)CC1 [Example 10]	40	6000	> 10000	–
O=C(C1CCN(c2ccc(S(=O)(=O)C3(C(=O)NO)CCOCC3)cc2)CC1)N1CCN(c2ccccc2Cl)CC1 [Example 4]	15.6	2900	> 10000	–
C#CCN1CCC(C(=O)NO)(S(=O)(=O)c2ccc(N3CCC(C(=O)c4ccc5ccccc5c4)CC3)cc2)CC1 [Example 175]	0.7	137	> 10000	–
CC(=O)c1ccc(N2CCN(C(=O)C3CCN(c4ccc(S(=O)(=O)C5(C(=O)NO)CCOCC5)cc4)CC3)CC2)cc1 [Example 24]	6.7	–	> 10000	700

SMILES	IC50 (Recombinant human MMP-13) [nM]	IC50 (Recombinant human MMP-2; read-out: MMP-2 IC50) [nM]	IC50 (Recombinant human MMP-1) [nM]	IC50 (Recombinant human MMP-2; MMP-2 IC50(nM)) [nM]
CCN1CCC(C(=O)NO)(S(=O)(=O)c2ccc(N3CCC(C(=O)c4ccc(CCC5CCCC5)cc4)CC3)cc2)CC1 [Example 237]	2.1	1910	> 10000	–
COc1ccc(C2CCN(c3ccc(S(=O)(=O)C4(C(=O)NO)CCN(C5CC5)CC4)cc3)CC2)cc1 [Example 260]	0.4	1.2	> 10000	–
COCCc1sc(CC(=O)C2CCN(c3ccc(S(=O)(=O)C4(C(=O)NO)CCOCC4)cc3)CC2)nc1C [Example 374]	5.6	970	> 10000	–
O=C(c1ccco1)N1CCN(C(=O)C2CCN(c3ccc(S(=O)(=O)C4(C(=O)NO)CCOCC4)cc3)CC2)CC1 [Example 13]	31.6	3500	> 10000	–
C#CCN1CCC(C(=O)NO)(S(=O)(=O)c2ccc(N3CCC(C(=O)c4ccc(Cl)cc4)CC3)cc2)CC1 [Example 153]	0.2	30.6	> 10000	–
COCCN1CCC(C(=O)NO)(S(=O)(=O)c2ccc(N3CCC(c4ccc(C)cc4)CC3)cc2)CC1 [Example 269]	1.4	–	> 10000	–
O=C(NO)C1(S(=O)(=O)c2ccc(N3CCC(c4nnc(-c5ccc(C(F)(F)F)cc5)o4)CC3)cc2)CCOCC1 [Example 375]	34.4	2660	–	–
CCN1CCC(C(=O)NO)(S(=O)(=O)c2ccc(N3CCC(C(=O)c4ccc(NC)cc4)CC3)cc2)CC1 [Example 172]	3.1	649	–	–
CS(=O)(=O)N1CCC(C(=O)NO)(S(=O)(=O)c2ccc(N3CCC(C(=O)c4ccc5ccccc5c4)CC3)cc2)CC1 [Example 166]	438	> 10000	–	–
O=C(NO)C1(S(=O)(=O)c2ccc(N3CCC(SCc4ccc(OC(F)(F)F)cc4)CC3)cc2)CCNCC1 [Example 146]	4	200	–	–
O=C(C1CCN(c2ccc(S(=O)(=O)C3(C(=O)NO)CCOCC3)cc2)CC1)N1CCN(c2ccc(C(F)(F)F)cc2)CC1 [Example 33]	–	–	67.4	–
COCCN1CCC(C(=O)NO)(S(=O)(=O)c2ccc(N3CCC(C(=O)c4ccc(CN5CCOCC5)cc4)CC3)cc2)CC1 [Example 240]	2.8	86	–	–
CNc1ccc(C(=O)C2CCN(c3ccc(S(=O)(=O)C4(C(=O)NO)CCN(S(C)(=O)=O)CC4)cc3)CC2)cc1 [Example 167]	4.7	2950	–	–
COCCN1CCC(C(=O)NO)(S(=O)(=O)c2ccc(N3CCC(C(=O)c4ccc(OC(C)C)c(F)c4)CC3)cc2)CC1 [Example 250]	2.1	107	–	–
COCCN1CCC(C(=O)NO)(S(=O)(=O)c2ccc(N3CCC(C(=O)c4ccc(C=C(C)C)s4)CC3)cc2)CC1 [Example 122]	0.1	106	–	–
O=C(NO)C1(S(=O)(=O)c2ccc(N3CCC(c4ccc(Cl)cc4)CC3)cc2)CCN(CC2CC2)CC1 [Example 274]	2.1	–	> 10000	–
